Test results: patent EP1144412B1, “IMMUNOSUPPRESSIVE EFFECTS OF PTERIDINE DERIVATIVES” (4 AZA Bioscience nv, priority 1998, dated 2000)
pIC50: −log10 of the molar value. Read-outs that look alike come from different tables or passages of the source.

What was measured:
Highly purified T cells [1] = assay: T cell proliferation induced by anti-CD3 mAb + PMA (BrdU incorporation); type: cell-based, Human; details: Homo sapiens, T-cell; for pIC50: IC50 subranges
Excerpt: (§1) Various models may be used for testing an immunosuppressive effect. In vivo, for example, different transplantation models are available. They are strongly influenced by different immunogenicities, depending on the donor and recipient species used and depending on the nature of the transplanted organ. The survival time of transplanted organs can thus be used to measure the suppression of the immune response. In vitro, there exist also various models. The most used are lymphocyte activation tests. Usually activation is measured via lymphocyte proliferation. Inhibition of proliferation thus always means immunosuppression under the experimental conditions applied. There exist different stimuli for lymphocyte activation: • coculture of lymphocytes of […] (MLR = mixed lymphocyte reaction): lymphocytes expressing different minor and major antigens of the HLA-DR type (= alloantigens) activate each other non-specifically. • CD3 assay: here there is an activation of the T-lymphocytes via an exogenously added antibody (OKT3). This antibody reacts against the CD3 molecule located on the lymphocyte membrane. This molecule has a costimulatory function. […] This molecule is also located on the lymphocyte membrane, and delivers strong costimulatory signals.
(§2) T cells were purified by removing non-T cells. Briefly,monocytes were removed by cold agglutination. The resulting lymphoid cells were further purified by a cell enrichment immunocolumn [Cellect Human T (Biotex, Edmonton, Alberta, Canada)] by a process of negative selection.
(§3) Measurements of T cell proliferations induced by anti-CD3 mAb + PMA or anti-CD28 mAb + PMA
(§4) Highly purified T cells (10^6/ml) were stimulated by immobilized anti-CD3 àr anti-CD28 mAb in the presence of PMA. Anti-CD3 mAb (CLB-CD3; CLB, Amsterdam, The Netherlands) were fixed on the 96-microwell plates by incubating the wells with 50 µl of mAb solution (1/800 dilution in culture medium). Anti-CD28 mAb (CLB-CD28; CLB, Amsterdam, The Netherlands) 50 µl (1/650 dilution in culture medium) was added directly to the wells. Further, 20 µl PMA (Sigma, St. Louis, MO, USA) solution (final concentration: 0.5 ng/ml) was added. Subsequently, 20 µl of immunosuppressants were added by serial dilution in triplicate wells. Finally 100 µl of the T cell suspension (10^6/ml) was added. After 48-hour incubation at 37EC in 5% CO2 20 Φl BrdU (100 ΦM solution) (Cell Proliferation Elisa, Boehringer-Mannheim Belgium) was added to each well. After a further overnight incubation the T cell proliferation was measured using a colorimetric immunoassay for qualification of cell proliferation based on measurements of the incorporation of BrdU during DNAsynthesis. The optical density (OD) was measured by a Behring EL311 plate reader at 450 nm (reference wavelength: 690 nm). The percent suppression of proliferation by drugs was counted using the formula: Per cent inhibition =((OD + drugs) - (OD Cult. Med.))/((OD - drugs) - (OD Cult. Med.))x 100 [formula]

Highly purified T cells [2] = assay: T cell proliferation induced by anti-CD28 mAb + PMA (BrdU incorporation); type: cell-based, Human; details: Homo sapiens, T-cell; for pIC50: IC50 subranges
Excerpt: as §1, §2, §3, §4

[3] = tested on: Peripheral blood mononuclear cells (PBMC); assay: Mixed lymphocyte reaction (MLR), [3H]-thymidine incorporation; type: cell-based; details: Homo sapiens; for pIC50: IC50 subranges
Excerpt: as §1
Peripheral blood mononuclear cells (PBMC) were isolated from heparinized peripheral blood by density gradient centrifugation over Lymphoprep (Nycomed, Maorstua, Norway). Allogeneic PBMC or EBV-transformed human B cells [RPMI1788 (ATCC name CCL156)] which strongly express B7-1 and B7-2 were used as stimulator cells after irradiation with 30 Gy. MLR was performed in triplicate wells. After 5 days incubation at 37EC, 1 µCi [^3H]-thymidine was added to each cup. After a further 16 hours incubation, cells were harvested and counted in a β-counter.
The percent suppression of proliferation by drugs was counted using the formula Percent inhibition =((cpm + drugs) - cpm Cult. Med)/((cpm - drugs) - cpm Cult. Med.)x 100 [formula]

[4] = untitled structure table, read-out: aCD3
[5] = untitled structure table, read-out: aCD28
[6] = Table II, read-out: IC50 in µM of pteridine derivative MLR
[7] = untitled structure table, no unit printed there, same values in Table II as IC50 in µM, read-out: MLR
[8] = Table II, read-out: IC50 in µM of pteridine derivative ACD3
[9] = untitled structure table, no unit printed there, same values in Table II as IC50 in µM, read-out: aCD3
[10] = Table II, read-out: IC50 in µM of pteridine derivative aCD28
[11] = untitled structure table, no unit printed there, same values in Table II as IC50 in µM, read-out: aCD28
[12] = Table IV, known pteridine derivatives, read-out: MLR
[13] = Table IV, known pteridine derivatives, read-out: aCD3
[14] = Table IV, known pteridine derivatives, read-out: aCD28
[15] = untitled structure table, read-out: MLR

Row | Structure (SMILES) | pIC50 (Highly purified T cells [1]; [4]) | pIC50 (Highly purified T cells [2]; [5]) | IC50 [3, 6] | IC50 [3, 7] | IC50 (Highly purified T cells [1]; [8]) | IC50 (Highly purified T cells [1]; [9]) | IC50 (Highly purified T cells [2]; [10]) | IC50 (Highly purified T cells [2]; [11]) | pIC50 [3, 12] | pIC50 (Highly purified T cells [1]; [13]) | pIC50 (Highly purified T cells [2]; [14]) | pIC50 [3, 15]
1 | CCOc1nc(N)nc2ncc(-c3ccc(OC)c(OC)c3)nc12 [Compound 66, 2-amino-4-ethoxy-6-(3,4-dimethoxyphenyl)pteridine] | > 6.00 | > 6.00 | – | – | – | – | – | – | – | – | – | –
2 | CN(C)c1nc(N)nc2ncc(-c3ccccc3)nc12 [Compound 14, 2-amino-4-dimethylamino-6-phenylpteridine] | – | – | 5 µM | 5 µM | 15 µM | 15 µM | 15 µM | 15 µM | – | – | – | –
3 | CSCc1cnc2nc(N)[nH]c(=O)c2n1 [CH2S CH3, reference compound] | – | – | – | – | – | – | – | – | < 3.82 | < 3.82 | < 3.82 | –
4 | COCc1cnc2nc(N)nc(N)c2n1 [CH2 O CH3, reference compound] | – | – | – | – | – | – | – | – | < 3.82 | < 3.82 | < 3.82 | –
5 | Cc1ccc(-c2cnc3nc(N)nc(N)c3n2)cc1 [Compound 7, 2,4-diamino-6-(4-tolyl)pteridine] | – | – | > 200 µM | > 200 µM | 110 µM | 110 µM | 25 µM | 25 µM | – | – | – | –
6 | Cc1cnc2nc(N)nc(N(C)C)c2n1 [Compound 60, 2-amino-4-dimethylamino-6-methylpteridine] | 3.82 to 4.80 | 3.82 to 4.80 | – | – | – | – | – | – | – | – | – | 3.82 to 4.80
7 | COc1ccc(-c2cnc3nc(N)nc(N)c3n2)cc1 [Compound 8, 2,4-diamino-6-(4-methoxyphenyl)pteridine] | – | – | 150 µM | > 150 µM | 125 µM | 125 µM | 22 µM | 22 µM | – | – | – | –
8 | COc1ccc(-c2cnc3nc(NC(C)=O)nc(O)c3n2)cc1OC [Compound 64, 2-acetamido-4-hydroxy-6-(3,4-dimethoxyphenyl)pteridine] | < 3.82 | 3.82 to 4.80 | – | – | – | – | – | – | – | – | – | 3.82 to 4.80
9 | CN(C)Cc1cnc2nc(N)nc(N)c2n1 [Compound 20, 2,4-diamino-6-dimethyl aminomethyl pteridine] | – | – | > 200 µM | > 200 µM | 170 µM | 170 µM | 100 µM | 100 µM | – | – | – | –
10 | Cc1ccc(-c2cnc3nc(N)nc(N(C)C)c3n2)cc1 [Compound 15, 2-amino-4-dimethylamino-6-(4-tolyl)pteridine] | – | – | 3.6 µM | 3.6 µM | 4.5 µM | 4.5 µM | 3.9 µM | 3.9 µM | – | – | – | –
11 | Nc1nc(NCCO)nc2ncc(-c3ccccc3)nc12 [Compound 10, 2-hydroxyethylamino-4-amino-6-phenylpteridine] | – | – | 125 µM | 125 µM | 125 µM | 125 µM | 125 µM | 125 µM | – | – | – | –
12 | Nc1nc(N)c2nc(CNCc3ccccc3)cnc2n1 [Compound 19, 2,4-diamino-6-benzylaminomethyl pteridine] | – | – | 50 µM | 50 µM | 123 µM | 123 µM | 118 µM | 118 µM | – | – | – | –
13 | CCCOCc1cnc2nc(N)nc(N)c2n1 [CH2 O CH2CH2CH3, reference compound] | – | – | – | – | – | – | – | – | < 3.82 | < 3.82 | < 3.82 | –
14 | CCCNc1nc(N)nc2ncc(-c3ccc(OC)c(OC)c3)nc12 [Compound 63, 2-amino-4-propylamino-6-(3,4-dimethoxyphenyl)pteridine] | – | – | – | – | – | – | – | – | – | – | – | > 6.00
